# In patent publication US6548494B1, “Tricyclic inhibitors of poly(ADP-ribose) polymerases” (Agouron Pharmaceuticals, Inc., priority 1999, dated 2003):
# pKi: −log10 of the molar value. “And” between values parts separate entries of the source, which are not always exact repeats. Equal values may be shown once. Where a name gives a salt, the structure may show the parent alone.
# Tested on: not given
# Assay: not given
# Conditions: not given
row,SMILES,melting point
1,"CN(C)c1cc(-c2nc3cccc4c3n2CCNC4=O)ccn1 [Example 71, 1-(2-Dimethylamino-pyridin-4-yl)-8,9-dihydro-7H-2,7,9a-triaza-benzo[cd]azulen-6-one]",266 to 268 °C
2,"O=C1NCCn2c(-c3cccc(CO)c3)nc3cccc1c32 [Example 32a, 1-(3-Hydroxymethyl-phenyl)-8,9-dihydro-7H-2,7,9a-triaza-benzo[cd]azulen-6-one]",275 to 278 °C
3,"O=C1NCCn2c(-c3cccc(Oc4cccnc4)c3)nc3cccc1c32 [Example 16, 1-[3-(Pyridin-3-yloxy)-phenyl]-8,9-dihydro-7H-2,7,9a-triaza-benzo[cd]azulen-6-one]",223 to 225 °C
4,"O=C1NCCn2c(-c3ccc(CN4CCSCC4)cc3)nc3cccc1c32 [Example 105, 1-(4-Thiomorpholin-4-ylmethyl-phenyl)-8,9-dihydro-7H-2,7,9a-triaza-benzo[cd]azulen-6-one]",266 °C (dec.)
5,"CNCc1ccc(-c2cc3cccc4c3n2CCNC4=O)cc1 [Example 83, 6-(4-Methylaminomethyl-phenyl)-3,4-dihydro-2H-[1,4]diazepino[6,7,1-hi]indol-1-one]",178 to 180 °C
6,"O=C1NCCn2c(-c3cccc(C4OCCO4)c3)nc3cc(F)cc1c32 [Example 68, 1-(3-[1,3]Dioxolan-2-yl-phenyl)-4-fluoro-8,9-dihydro-7H-2,7,9a-triaza-benzo[cd]azulen-6-one]",262 to 264 °C (dec.)
7,"O=C1NCCn2c(-c3cccc(C4OCCCO4)c3)nc3cccc1c32 [Example 30, 1-(3-[1,3]-Dioxan-2-yl-phenyl)-8,9-dihydro-7H-2,7,9a-triaza-benzo[cd]azulen-6-one]",247 °C (dec.)
8,"Cc1ccc(-c2onc3ccc(-c4nc5cccc6c5n4CCNC6=O)cc23)cc1 [Example 107, 1-(3-p-Tolyl-benzo[c]isoxazol-5-yl)-8,9-dihydro-7H-2,7,9a-triaza-benzo[cd]azulen-6-one]",297 to 301 °C (dec.)
9,"O=C1NCCn2c(-c3ccc(CNCC(F)(F)F)cc3)nc3cccc1c32 [Example 103, 1-4-[(2,2,2-Trifluoro-ethylamino)-methyl]-phenyl-8,9-dihydro-7H-2,7,9a-triaza-benzo[cd]azulen-6-one]",221 to 223 °C
10,"O=C1NCCn2c(-c3cccc(CN4CCCC4)c3)nc3cccc1c32 [Example 60, 1-(3-Pyrrolidin-1-ylmethyl-phenyl)-8,9-dihydro-7H-2,7,9a-triaza-benzo[cd]azulen-6-one]",92 °C (dec.)
11,O=Cc1c(-c2ccc(F)cc2)n2c3c(cccc13)C(=O)NCC2,268 to 270 °C
12,"O=Cc1ccc(-c2cc3cc(F)cc4c3n2CCNC4=O)cc1 [Example 169, 4-(9-Fluoro-1-oxo-1,2,3,4-tetrahydro-[1,4]diazepino[6,7,1-hi]indol-6-yl)-benzaldehyde]",212 to 214 °C
13,"CN1CCn2c(-c3cccc4ccccc34)nc3cccc(c32)C1=O [Example 27, 7-Methyl-1-naphthalen-1-yl-8,9-dihydro-7H-2,7,9a-triaza-benzo[cd]azulen-6-one]",126 °C (dec.)
14,"N/N=C(\N)c1c(-c2ccc(F)cc2)n2c3c(cccc13)C(=O)NCC2 (as salt: hydrochloride) [Example 156, 7-Formyl-6-(4-fluorophenyl)-1-oxo-3,4-dihydro-[1,4]diazepino[6,7,1-hi]indole Amidrazone Hydrochloride]",272 to 274 °C

# Biological target: purified PARP protein (Homo sapiens, UniProt P09874)
# Sequence (P09874 whole entry): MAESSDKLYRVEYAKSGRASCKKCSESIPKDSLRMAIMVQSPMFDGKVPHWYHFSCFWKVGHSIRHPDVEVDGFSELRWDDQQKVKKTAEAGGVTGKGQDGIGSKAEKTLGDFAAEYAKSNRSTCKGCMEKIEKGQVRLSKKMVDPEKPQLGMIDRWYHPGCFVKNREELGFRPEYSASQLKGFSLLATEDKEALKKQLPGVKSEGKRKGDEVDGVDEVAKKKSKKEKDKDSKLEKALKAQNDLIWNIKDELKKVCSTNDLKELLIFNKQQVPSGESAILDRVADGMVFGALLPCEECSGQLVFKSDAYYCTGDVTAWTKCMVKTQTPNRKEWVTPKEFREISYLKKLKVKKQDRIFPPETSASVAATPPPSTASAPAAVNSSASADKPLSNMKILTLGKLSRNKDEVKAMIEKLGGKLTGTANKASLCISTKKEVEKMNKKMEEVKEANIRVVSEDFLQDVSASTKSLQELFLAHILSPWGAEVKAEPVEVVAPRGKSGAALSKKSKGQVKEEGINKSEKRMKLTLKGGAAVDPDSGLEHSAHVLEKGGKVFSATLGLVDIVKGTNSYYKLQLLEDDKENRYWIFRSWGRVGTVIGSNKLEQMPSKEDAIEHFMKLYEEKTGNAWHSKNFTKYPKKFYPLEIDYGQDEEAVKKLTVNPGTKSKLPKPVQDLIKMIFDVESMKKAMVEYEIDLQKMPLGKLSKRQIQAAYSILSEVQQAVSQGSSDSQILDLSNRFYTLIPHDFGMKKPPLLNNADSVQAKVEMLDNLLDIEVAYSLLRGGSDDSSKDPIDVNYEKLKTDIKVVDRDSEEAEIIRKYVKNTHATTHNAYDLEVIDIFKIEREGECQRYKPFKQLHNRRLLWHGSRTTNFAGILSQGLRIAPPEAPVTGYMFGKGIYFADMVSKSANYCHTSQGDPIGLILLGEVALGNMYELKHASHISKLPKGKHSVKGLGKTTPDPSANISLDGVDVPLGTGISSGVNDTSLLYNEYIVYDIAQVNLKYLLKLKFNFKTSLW
# Assay: PARP enzyme inhibition assay
# Assay type: biochemical
# Conditions: 20 nM purified PARP (5 nM for tight-binding inhibitors), 500 μM NAD+, 25° C.; several values in one cell = repeat determinations; read-out: Inhibition Constant Ki
row,SMILES,pKi
1,"CN(C)c1cc(-c2nc3cccc4c3n2CCNC4=O)ccn1 [Example 71, 1-(2-Dimethylamino-pyridin-4-yl)-8,9-dihydro-7H-2,7,9a-triaza-benzo[cd]azulen-6-one]",7.89
2,"O=C1NCCn2c(-c3cccc(CO)c3)nc3cccc1c32 [Example 32a, 1-(3-Hydroxymethyl-phenyl)-8,9-dihydro-7H-2,7,9a-triaza-benzo[cd]azulen-6-one]",8.06
3,"O=C1NCCn2c(-c3cccc(Oc4cccnc4)c3)nc3cccc1c32 [Example 16, 1-[3-(Pyridin-3-yloxy)-phenyl]-8,9-dihydro-7H-2,7,9a-triaza-benzo[cd]azulen-6-one]",8.14
4,"O=C1NCCn2c(-c3ccc(CN4CCSCC4)cc3)nc3cccc1c32 [Example 105, 1-(4-Thiomorpholin-4-ylmethyl-phenyl)-8,9-dihydro-7H-2,7,9a-triaza-benzo[cd]azulen-6-one]",8.21
5,"O=C1NCCn2c(-c3cccc(C4OCCO4)c3)nc3cc(F)cc1c32 [Example 68, 1-(3-[1,3]Dioxolan-2-yl-phenyl)-4-fluoro-8,9-dihydro-7H-2,7,9a-triaza-benzo[cd]azulen-6-one]",8.24
6,"Cc1ccc(-c2onc3ccc(-c4nc5cccc6c5n4CCNC6=O)cc23)cc1 [Example 107, 1-(3-p-Tolyl-benzo[c]isoxazol-5-yl)-8,9-dihydro-7H-2,7,9a-triaza-benzo[cd]azulen-6-one]",7.60
7,"O=C1NCCn2c(-c3ccc(CNCC(F)(F)F)cc3)nc3cccc1c32 [Example 103, 1-4-[(2,2,2-Trifluoro-ethylamino)-methyl]-phenyl-8,9-dihydro-7H-2,7,9a-triaza-benzo[cd]azulen-6-one]",8.21
8,"O=C1NCCn2c(-c3cccc(CN4CCCC4)c3)nc3cccc1c32 [Example 60, 1-(3-Pyrrolidin-1-ylmethyl-phenyl)-8,9-dihydro-7H-2,7,9a-triaza-benzo[cd]azulen-6-one]",8.21
9,"CC(CNCc1ccc(-c2nc3cccc4c3n2CCNC4=O)cc1)c1ccccc1 (stereo not drawn) [Example 200, 1-{4-[(2-Phenyl-propylamino)-methyl]-phenyl}-8,9-dihydro-7H-2,7,9a-triaza-benzo[cd]azulen-6-one]",8.22
10,"O=C1NCCn2c(-c3ccccc3)cc3cccc1c32 [Example 33, 6-Phenyl-3,4-dihydro-2H-[1,4]diazepino[6,7,1-hi]indol-1-one]",7.84
11,"CCOC(=O)CCN(Cc1ccc(-c2nc3cccc4c3n2CCNC4=O)cc1)Cc1ccco1 [Example 193, 3-{[4-(6-oxo-6,7,8,9-Tetrahydro-2,7,9a-triaza-benzo[cd]azulen-1-yl)-benzyl]-furan-2-ylmethyl-amino}-propionic Acid Ethyl Ester]",7.96
12,"CN(CCc1ccncc1)Cc1ccc(-c2nc3cccc4c3n2CCNC4=O)cc1 [Example 205, 1-(4-{[Methyl-(2-pyridin-4-yl-ethyl)-amino]-methyl}-phenyl)-8,9-dihydro-7H-2,7,9a-triaza-benzo[cd]azulen-6-one]",8.33
13,"O=C1NCCn2c(-c3ccc(/C=C/c4ccccc4)cc3)nc3cccc1c32 [Example 247c, 1-[4-((E)-Styryl)-phenyl]-8,9-dihydro-7H-2,7,9a-triaza-benzo[cd]azulen-6-one]",7.80
14,"O=C1NCCn2c(-c3ccco3)nc3cccc1c32 [Example 20, 1-Furan-2-yl-8,9-dihydro-7H-2,7,9a-triaza-benzo[cd]azulen-6-one]",7.92
15,"O=C1NCCn2c(-c3ccc(CNCCc4ccccn4)cc3)nc3cccc1c32 [Example 204, 1-{4-[(2-Pyridin-2-yl-ethylamino)-methyl]-phenyl}-8,9-dihydro-7H-2,7,9a-triaza-benzo[cd]azulen-6-one]",8.10
16,"O=C1NCCn2c(-c3ccc(-c4ccc(Cl)cc4)o3)nc3cccc1c32 [Example 96, 1-[5-(4-Chlorophenyl)-furan-2-yl]-8,9-dihydro-7H-2,7,9a-triaza-benzo[cd]azulen-6-one]",8.00
17,"O=C1NCCn2c(-c3ccc(CO)cc3)nc3cccc1c32 [Example 58a, 1-(4-hydroxymethyl-phenyl)-8,9-dihydro-7H-2,7,9a-triaza-benzo[cd]azulen-6-one]",8.38

row,SMILES,pKi
1,"CCCN(CCC)Cc1ccc(-c2nc3cccc4c3n2CCNC4=O)cc1 [Example 190, 1-(4-Dipropylaminomethyl-phenyl)-8,9-dihydro-7H-2,7,9a-triaza-benzo[cd]azulen-6-one]",8.09
2,"Cc1cn2c3c(cccc13)C(=O)NCC2 [Example 49, 7-Methyl-3,4-dihydro-2H-[1,4]diazepino[6,7,1-hi]indol-1-one]",6.91
3,"C[C@H]1Cn2c(-c3ccc(CN(C)C)cc3)nc3cccc(c32)C(=O)N1 [Example 221, (S)-1-(4-Dimethylaminomethyl-phenyl)-8-methyl-8,9-dihydro-7H-2,7,9a-triaza-benzo[cd]azulen-6-one]",8.30
4,"O=C1NCCn2c(-c3ccc(CNCCc4ccccc4)cc3)nc3cccc1c32 [Example 183, 1-[4-(Phenethylamino-methyl)-phenyl]-2,7,8,9-tetrahydro-2,7a-triaza-benzo[cd]azulen-6-one]",8.10
5,"CN(Cc1ccc(-c2nc3cccc4c3n2CCNC4=O)cc1)CC(O)CO (stereo not drawn) [Example 176, 1-(4-{[(2,3-Dihydroxy-propyl)-methyl-amino]-methyl}-phenyl)-8,9-dihydro-7H-2,7,9a-triaza-benzo[cd]azulen-6-one]",8.05
6,"O=C1NCCn2c(-c3ccc(Cn4ccnc4)cc3)nc3cccc1c32 [Example 213, 1-(4-Imidazol-1-ylmethyl-phenyl)-8,9-dihydro-7H-2,7,9a-triaza-benzo[cd]azulen-6-one]",8.13
7,"O=Cc1c(-c2ccc(Cl)cc2)n2c3c(cccc13)C(=O)NCC2 [Example 38, 6-(4-Chloro-phenyl)-1-oxo-1,2,3,4-tetrahydro-[1,4]diazepino[6,7,1-hi]indole-7-carboxaldehyde]",7.37
8,"C[C@@H]1Cn2c(-c3ccc(Cl)cc3)nc3cccc(c32)C(=O)N1 [Example 236, (R)-1-(4-Chloro-phenyl)-8-methyl-8,9-dihydro-7H-2,7,9a-triaza-benzo[cd]azulen-6-one]",6.95
9,"O=C1NCCn2c(Cc3ccccc3)nc3cccc1c32 [Example 21, 1-Benzyl-8,9-dihydro-7H-2,7,9a-triaza-benzo[cd]azulen-6-one]",7.86 and 7.89
10,"O=C1NCCn2c(-c3ccc(CNCc4cccs4)cc3)nc3cccc1c32 [Example 189, 1-(4-{[(Thiophen-2-ylmethyl)-amino]-methyl}-phenyl)-8,9-dihydro-7H-2,7,9a-triaza-benzo[cd]azulen-6-one]",8.29
11,"COC[C@@H]1CC[C@@H](COC)N1Cc1ccc(-c2nc3cccc4c3n2CCNC4=O)cc1 [Example 216, 1-[4-((2S,5S)-2,5-bis-Methoxymethyl-pyrrolidin-1-ylmethyl)-phenyl]-8,9-dihydro-7H-2,7,9a-triaza-benzo[cd]azulen-6-one]",7.57
12,"O=C1NCCn2c(-c3ccc(C(O)Cc4ccccc4)cc3)nc3cccc1c32 (stereo not drawn) [Example 247a, 1-[4-(1-Hydroxy-2-phenyl-ethyl)-phenyl]-8,9-dihydro-7H-2,7,9a-triaza-benzo[cd]azulen-6-one]",8.00
13,"O=C1NCCn2c(C3CCCCC3)nc3cccc1c32 [Example 24, 1-Cyclohexyl-8,9-dihydro-7H-2,7,9a-triaza-benzo[cd]azulen-6-one]",7.54
14,"O=C1NCCn2c(-c3ccc(CN4CCCC(CO)C4)cc3)nc3cccc1c32 (stereo not drawn) [Example 175, 1-[4-(3-Hydroxymethyl-piperidin-1-ylmethyl)-phenyl]-8,9-dihydro-7H-2,7,9a-triaza-benzo[cd]azulen-6-one]",8.18
15,"O=C1NCCn2c(-c3ccc(CN4CCC[C@@H]4C(=O)OCc4ccccc4)cc3)nc3cccc1c32 [Example 217, (R)-1-[4-(6-oxo-6,7,8,9-Tetrahydro-2,7,9a-triaza-benzo[cd]azulen-1-yl)-benzyl]-pyrrolidine-2-carboxylic Acid Benzyl Ester]",7.59
16,"CC(C)CC(c1ccc(-c2nc3cccc4c3n2CCNC4=O)cc1)N(C)C (stereo not drawn) [Example 231, 1-[4-(Dimethylamino-methyl-butyl)-phenyl]-8,9-dihydro-7H-2,7,9a-triaza-benzo[cd]azulen-6-one]",8.16
17,"CC(C)CC(c1ccc(-c2nc3cccc4c3n2CCNC4=O)cc1)N1CC=CC1 (stereo not drawn) [Example 229, 1-{4-[1-(2,5-Dihydro-pyrrol-1-yl)-3-methyl-butyl]-phenyl}-8,9-dihydro-7H-2,7,9a-triaza-benzo[cd]azulen-6-one]",8.28 and 8.17
